System: ADP-stimulated platelets
Test: ADP-stimulated platelet aggregation assay (gel-filtered human platelets)
Type: cell-based
Details: ADP-stimulated gel-filtered human platelets (2×10^8 per ml), fibrinogen 100 ug/ml, Ca^2+ 1 mM, 10 mM ADP, 37° C., read-out: IC50 (inhibition of aggregation by 50% relative to a control)
Excerpt: The activity of these fibrinogen receptor antagonists is illustrated below. One test used to evaluate fibrinogen receptor antagonist activity is based on evaluation of inhibition of ADP-stimulated platelets. Aggregation requires that fibrinogen bind to and occupy the platelet fibrinogen receptor site. Inhibitors of fibrinogen binding inhibit aggregation. In the ADP-stimulated platelet aggregation assay used to determine inhibition associated with these fibrinogen receptor antagonists, human platelets are isolated from fresh blood, collected into acid citrate/dextrose by differential centrifugation followed by gel filtration on Sepharose 2B in divalent ion-free Tyrode's buffer (pH 7.4) containing 2% bovine serum albumin.
Platelet aggregation is measured at 37° C. in a Chronolog aggregometer. The reaction mixture contains gel-filtered human platelets (2×10^8 per ml), fibrinogen (100 micrograms per ml (ug/ml)), Ca^2+ (1 mM), and the fibrinogen receptor antagonists tested. The aggregation is initiated by adding 10 mM ADP 1 minute after the other components are added. The reaction is then allowed to proceed for at least 2 minutes. The extent of inhibition of aggregation is expressed as the percentage of the rate of aggregation observed in the absence of inhibitor. The IC50 is the dose of a particular compound inhibiting aggregation by 50% relative to a control lacking the compound. […]

- IC50: 100 µM
Structure (SMILES): C[C@H](CC(=O)O)NC(=O)CN1CCCC(CCC2CCNCC2)C1=O (stereo partly shown)

From patent US5686607A, “Pyridyl ethylation of lactam derivatives” (Merck & Co., Inc., priority 1996, dated 1997)
